Data: US6375942B1, “Skin healing ointment” (priority 1999, dated 2002)

Tested on: severe persistent rash caused by poison ivy
Experiment: Case 1: ointment test on sufferer
Type: in vivo, Human
Settings: adult; prescribed by dermatologist
Text: They then sought out other sufferers on whom to test their ointment. The results follow:
Case 1: adult suffering from severe persistent rash caused by poison ivy. […] Application of ointment only once per day completely healed subject in 2½ days.

CCCCC(=O)O[C@]1(C(=O)CO)[C@@H](C)C[C@H]2[C@@H]3CCC4=CC(=O)C=C[C@]4(C)[C@@]3(F)[C@@H](O)C[C@@]21C [valisone]
outcome of prescribed treatment: without success
